Assay results from EP0520823A2, “Non-substrate peptide inhibitors of farnesyl protein transferase” (MERCK & CO. INC., priority 1991, dated 1992).
Where a SMILES comes first, the peptide text is derived from it. [ ]: non-standard residue; d: D form.

Experiments:
[1] = tested on: partially pure bovine brain farnesyl-protein transferase; assay: Tetrapeptides tested as farnesylation substrates ([3H]FPP, TLC, autoradiography); format: biochemical; conditions: peptide 200 µM, 0.5 µM [3H] FPP, 30 min. at 30°C
Method: When a peptide was used as the acceptor substrate, there were two changes to the assay: (1) Ras protein was excluded and, (2) the reactions were stopped by the additon of one tenth volume of 0.5 M EDTA. […] After drying under vacuum, the plates were sprayed with […] exposed to X-ray film at -70°C. […] These Rf values reflect TLC conditions using ethylacetate:pyridine: acetic acid:water (10:5:1:3) as the eluent. […] CAIS (Rf=0.84) and CAIM (Rf=0.83)). Quenched reaction mixtures containing peptide, farnesyldiphosphate and farnesyl-protein transferase were separated by TLC followed by visualization of the radioactive species by autoradiography. […] Control peptides having a […] substitution were not substrates. […] Autoradiographic exposure time was overnight (15-20 hr).

[2] = target: T1, Farnesyl-protein transferase from bovine brain (partially purified) (Bos taurus, UniProt P29702+P49355); assay: Inhibition of Ras farnesylation by tetrapeptides; format: biochemical; conditions: Ras-CVLS at 3.5 µM, 0.25 µM [³H]FPP; average of 2-5 determinations
T1 construct: Cerebral lobes from bovine brains were homogenized in lysis buffer; from tissue; host or cells: bovine brain (cerebral lobes)
Method: The quenched reactions were allowed to stand for 15 minutes (to complete the precipitation process).
Fractions (20 mL) were collected and those containing farnesyl-protein transferase activity were pooled.
Single capital letter amino acid abbreviations are used above.

[3] = tested on: bovine brain farnesyl-protein transferase; conditions: earlier findings (Schaber et al.); cited from earlier work

Molecule	IC50 [2] [µM]	Farnesylation substrate [1]	substrate for isoprenylation [3]
CC(C)C[C@H](NC(=O)[C@@H](NC(=O)[C@@H](N)CO)C(C)C)C(=O)N[C@@H](CO)C(=O)O [SVLS] (H-SVLS-OH)		- (- < 1% conversion)	
CC(C)C[C@H](NC(=O)[C@@H](NC(=O)[C@@H](N)CS)C(C)C)C(=O)N[C@H](CO)C(=O)O [CVL(dS)]	11	+ (+ > 90% [^3H] farnesyl diphosphate converted to [^3H] farnesyl tetrapeptide)	
CSCC[C@H](NC(=O)[C@@H](Cc1ccccc1)NC(=O)[C@@H](NC(=O)[C@@H](N)CS)C(C)C)C(=O)O [CV(dF)M, Cys-Val-D-Phe-Met]		- (- < 1% conversion)	
CC(C)C[C@@H](NC(=O)[C@@H](NC(=O)[C@@H](N)CS)C(C)C)C(=O)N[C@@H](CO)C(=O)O [CV(dL)S, Cys-Val-D-Leu-Ser]	20	- (- < 1% conversion)	
SSGCVLS [heptapeptide SSGCVLS]			served as a substrate for isoprenylation

Further lines, with some results ahead:

IC50 [2] [µM]	Molecule	Farnesylation substrate [1]	substrate for isoprenylation [3]
2	CC(=O)N[C@@H](CS)C(=O)N[C@H](C(=O)N[C@@H](CC(C)C)C(=O)N[C@@H](CO)C(=O)O)C(C)C [N-Ac-CVLS] (Ac-CVLS-OH)	+ (+ > 90% [^3H] farnesyl diphosphate converted to [^3H] farnesyl tetrapeptide)	
60	CC(=O)N[C@H](CS)C(=O)N[C@H](C(=O)N[C@@H](CC(C)C)C(=O)N[C@@H](CO)C(=O)O)C(C)C [N-Ac-(dC)VLS] (Ac-[dC]VLS-OH)	+ (+ > 90% [^3H] farnesyl diphosphate converted to [^3H] farnesyl tetrapeptide)	
